The test system of assay [1] is COLO320DM cells. The assay is described as follows: Tumour Cell Inhibition Assay (COLO320DM cells). The format is cell-based. The following applies: Homo sapiens, COLO 320DM, 120 h, five day exposure, read-out: cell inhibitory SF50 (COLO320DM). The protocol: (§1) Tumour Cell Inhibition in Colorectal Tumour Cells
(§2) In order to determine the efficacy of acute dosing of putative TNKS inhibitors, five day exposure cell viability assays were carried out. This included the sparse seeding of cells in a 96-well plate followed by continuous dosing of cells over a five day period.
(§3) Appropriate cell lines (HT55, COLO320DM and SW620) were seeded at 500 cells/well in a 96-well plate in MEM (HT55), RPMI (COLO320DM) or DMEM (SW620) supplemented with FBS. After overnight incubation, cells were treated with the appropriate putative TNKS inhibitor in 6 or 10 concentrations ranging from 0 μM to 10 μM at 0.2% final DMSO concentration in appropriate media supplemented with 10% or 0.5% FBS. Dosages were carried out in triplicate. Termination of the assay and measurement of cell viability was achieved by the use of Cell Titre Glo reagent and luminescence measurement on an appropriate plate reader.
(§4) Dose response curves used to determine SF50 values were Log transformed and analysed by non-linear regression analysis (variable slope) using Prism (GraphPad Software, Inc).

The target of assay [2] is T1, TNKS1 (Homo sapiens, UniProt O95271, M1266I).
T1 construct: expresses the active PARP domain of TNKS1 as a polyhistidine tagged protein; made in house; host or cells: E. coli Rosetta2(DE3)
The experiment in a line: TNKS1/PARP Biochemical Assay. The protocol: TNKS1/PARP Biochemical Assay
Tankyrase activity was assayed using a 96-well format HT Universal Chemiluminescent PARP Assay Kit (Trevigen, Inc, cat. no. 4676-096-K) according to the manufacturer's instructions. In short, tankyrase/PARP activity is quantified by the incorporation of biotinylated nicotinamide adenine dinucleotide (biotin-NAD^+) onto the immobilised pseudo substrate, Histone. The extent of poly(Biotin-ADP)ribosylation (PARylation) in the presence of increasing dose of inhibitor is then quantified by binding of streptavidin conjugated horse radish peroxidase (strep-HRP) followed by chemiluminescent detection.
Prior to assay initiation, inhibitor stocks were prepared in aqueous DMSO (10% (v/v)) from 5 millimolar (mM) stock in 100% DMSO (Sigma Aldrich, cat. no. 265855) as 10× concentrations. For the primary assay (i.e., single dose at 1 micromolar (μM) final concentration) this corresponded to 10 μM in 10% DMSO. For IC50 determination, this corresponded to 100 μM, 30 μM, 10 μM, 3.0 μM, 1.0 μM, 0.30 μM, 0.10 μM and 0 μM in 10% DMSO for final concentrations of 10 μM, 3.0 μM, 1.0 μM, 0.30 μM, 0.10 μM, 0.030 μM, 0.010 μM, and 0 μM with 1% (v/v) final DMSO. The assay was initiated by the addition of 10× inhibitor (5 microliters (μL)) or 10% aqueous DMSO (5 μL) to triplicate wells. Twenty microliters of diluted TNKS1 protein (200 nanomolar (nM) final conc.) in PARP buffer (Trevigen, Inc, cat. no. 4671-096-02) was added to each histone coated well, which was previously hydrated with PARP buffer. Triplicate wells with 1% DMSO/buffer alone (no enzyme) were also added as a measure of assay ‘noise’. Positive control for PARP inhibition included the addition of 4-amino-1,8-naphthalimide (Sigma Aldrich, cat. no A0966) in corresponding doses.
The mixture was incubated for 10 minutes at room temperature and the PARylation reaction initiated by the addition of PARP cocktail (25 μL, Trevigen, Inc) containing biotin-NAD^+ (Trevigen, Inc, cat. no. 4670-500-01), activated DNA (Trevigen, Inc, cat. no. 4671-096-06) and PARP buffer. The reaction was incubated for 1.5 hours (for TNKS1) or 1 hour (for PARP1) at room temperature. The reaction mixture was then removed by aspiration and the wells washed (3×200 μL) with phosphate buffered saline containing Triton X-100 (0.1% (v/v), Sigma Aldrich cat. no. T8787). The wells were then washed (3×200 μL) with phosphate buffered saline and then incubated with strep-HRP (50 μL, Trevigen, Inc, cat. no. 4800-30-06) in strep-diluent (1:500 dilution, Trevigen Inc, cat. no. 4671-096-04) for 1 hour at room temperature. The Strep-HRP mixture was then aspirated and the wells washed (3×200 μL) with phosphate buffered saline containing Triton X-100 (0.1% (v/v)) followed by phosphate buffered saline (3×200 μL) and then incubated with PeroxyGlow™ reagent (100 μL, Trevigen, Inc, cat. nos. 4675-096-01, 4675-096-02, room temperature, mixed 1:1).
The amount of light emitted as a result of the peroxidase-chemiluminescent reagent reaction was in proportion to the extent of poly(Biotin-ADP)ribosylation and was immediately measured with a Victor^2 plate reader (Perkin Elmer, luminescence detection assay, luminescent units described as ‘Counts Per Second’ (CPS)). The data were normalised to the DMSO control after subtraction of ‘noise’ and was expressed as % PARP activity as a function of inhibitor dose. Inhibition was expressed as 100%−(% PARP activity). Dose response curves used to determine IC50 values were Log transformed and analysed by non-linear regression analysis (variable slope) using Prism (GraphPad Software, Inc) and were presented as IC50 with 95% confidence interval to determine relative potency.
Tankyrase1 (pNIC-Bsa4-TNKS1^PARP) expression construct was obtained from the Structural Genomics Consortium (SGC) and expresses the active PARP domain of TNKS1 as a polyhistidine tagged protein. […]

Assay [3] relates to Wnt signalling. The assay is described as follows: Wnt-Luciferase Reporter Assay. The settings on record: DLD1-Wnt-Luc cells, 20-22 hours. The format is cell-based. The method, then: Wnt-Luciferase Reporter Assay
A Wnt dependent cell line (i.e., DLD1 colorectal adenocarcinoma cell line) was transduced with replication incompetent VSV-g pseudotyped lentiviral particles expressing the firefly luciferase gene under the control of minimal cytomegalovirus (mCMV) promoter and tandem repeats of the TCF/LEF transcriptional response element.
DLD1-Wnt-Luc cells were seeded (5000 cells/well) in a 96-well plate (Greiner Bio-One, cat. no. 655098) in Dubelco's Modified Eagle Medium (DMEM, SFBCO/Invitrogen, cat no. 41965-039) supplemented with Fetal Bovine Serum (FBS, 10%, SFBCO/Invitrogen, cat no. 10108-165). After overnight incubation, the media was replaced with OptiMEM (SFBCO/Invitrogen, cat no. 11058-021) supplemented with FBS (0.5%) and non-essential amino acids (1%, SFBCO/Invitrogen, cat no. 11140-035) and the appropriate putative TNKS inhibitor at a final concentration of 10 μM, 3 μM, 1 μM, 0.30 μM, 0.10 μM, 0.030 μM, 0.010 μM and 0 μM with 1% (v/v) final DMSO in double-triplicate wells. Positive control includes the use of XAV-939 (Maybridge, FisherScientific, 3,5,7,8-tetrahydro-2-[4-(trifluoromethyl)phenyl]-4H-thiopyrano[4,3-d]pyrimidin-4-one, cat. no. RF03920, see: Huang et al., Nature, 2009, Vol. 461, pp. 614-620). Cells were incubated for 20-22 hours before assaying for luciferase (first set of triplicates: Wnt activation) and viability (second set of triplicates: cell survival for data normalisation vs Wnt-activation) using ONE-Glo (Promega, cat. no. E6110) and CellTiter-Glo (Promega, cat. no. G7570) reagents consecutively. The assay was measured using a Victor^2 plate reader. The data were normalised to the DMSO control and were expressed as % Wnt activity as a function of inhibitor dose. Dose response curves used to determine IC50 values were Log transformed and analysed by non-linear regression analysis (variable slope) using Prism (GraphPad Software, Inc).
For orientation: A reporter such as luciferase makes a cellular process visible.

In assay [4] the test system is HT55 cells. The experiment in a line: Tumour Cell Inhibition Assay (HT55 cells). The format is cell-based. The settings on record: Homo sapiens, HT55, 120 h, Tumour Cell Inhibition Assay, five day exposure; read-out: cell inhibitory SF50 (HT55). The method, then:
as §1, §2, §3, §4

For 22 molecules, IC50 results are on record in patent US9611223B2, “3-aryl-5-substituted-isoquinolin-1-one compounds and their therapeutic use” (INSTITUTE OF CANCER RESEARCH: ROYAL CANCER HOSPITAL (THE), priority 2013, dated 2017).

Where only a bound is given, the exact number is not on record here.

T1 sequence (O95271 1112-1317 M1266I): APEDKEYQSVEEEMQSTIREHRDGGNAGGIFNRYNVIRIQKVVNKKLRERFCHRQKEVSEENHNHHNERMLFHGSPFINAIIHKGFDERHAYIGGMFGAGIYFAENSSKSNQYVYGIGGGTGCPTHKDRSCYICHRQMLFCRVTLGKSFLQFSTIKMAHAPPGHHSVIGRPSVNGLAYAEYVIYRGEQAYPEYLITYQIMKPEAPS

With `N#Cc1cccc2c(=O)[nH]c(-c3ccc(CN4CC5CCC(C4)N5)cc3)cc12` [IQ-003], the IC50 is < 5000 nM in assay [1], < 100 nM in assay [2] and < 300 nM in assay [3].
Take `N#Cc1cccc2c(=O)[nH]c(-c3ccc(C(=O)N4CCNCC4)cc3)cc12` [IQ-004, 1-Oxo-3-[4-(piperazine-1-carbonyl)-phenyl]-1,2-dihydro-isoquinoline-5-carbonitrile]: the IC50 was < 50 nM in assay [2] and < 5000 nM in assay [4].
`CN1CCC(N(C)C(=O)c2ccc(-c3cc4c(C#N)cccc4c(=O)[nH]3)cc2)CC1` [IQ-005]: the IC50 was < 5000 nM in assay [1], < 50 nM in assay [2] and < 300 nM in assay [3].
With `N#Cc1cccc2c(=O)[nH]c(-c3cnc(N4CCN(C(=O)C5CC5)CC4)nc3)cc12` [IQ-007, 3-[2-(4-Cyclopropanecarbonyl-piperazin-1-yl)-pyrimidin-5-yl]-1-oxo-1,2-dihydro-isoquinoline-5-carbonitrile], the results for the IC50 in assay [2] and in assay [3] were < 50 nM and < 300 nM, respectively.
Turning to `N#Cc1cccc2c(=O)[nH]c(-c3ccc(Cn4cccn4)cc3)cc12` [IQ-021], the IC50 in assay [2] is < 50 nM; in assay [3], < 300 nM.
Consider `N#Cc1cccc2c(=O)[nH]c(-c3ccc(Cn4nccn4)cc3)cc12` [IQ-027], for which the IC50 is < 5000 nM in assay [1], < 100 nM in assay [2] and < 300 nM in assay [3].
Take `COCc1ccn(Cc2ccc(-c3cc4c(C#N)cccc4c(=O)[nH]3)cc2)n1` [IQ-033]: the IC50 in assay [1] was < 5000 nM; in assay [2], < 50 nM.
On to `COCCN1CCN(C(=O)c2ccc(-c3cc4c(C#N)cccc4c(=O)[nH]3)cc2)CC1` [IQ-035], for which the IC50 was < 5000 nM in assay [1], < 50 nM in assay [2] and < 300 nM in assay [3].
Taken in the same sequence, the figures for `CN1CCN(C(=O)Cc2ccc(-c3cc4c(C#N)cc(F)cc4c(=O)[nH]3)cc2)CC1` [IQ-036] were < 5000 nM, < 50 nM and < 300 nM.
The matching figures for `CN1CCN(C(=O)Cc2ccc(-c3cc4c(C#N)cccc4c(=O)[nH]3)cc2)CC1` [IQ-037]: < 5000 nM, < 50 nM and < 300 nM.
Take `CC(c1ccc(-c2cc3c(C#N)cccc3c(=O)[nH]2)cc1)n1ccnc1CO` (stereo not drawn) [IQ-038]: the results for the IC50 in assay [1] and in assay [2] were < 5000 nM and < 50 nM, respectively.
Taken in the same sequence, the figures for `Cc1nnc(N2CCN(Cc3ccc(-c4cc5c(C#N)cc(F)cc5c(=O)[nH]4)cc3)CC2)o1` [IQ-039] were < 5000 nM and < 50 nM.
In the case of `Cc1nnc(N2CCN(Cc3ccc(-c4cc5c(C#N)cccc5c(=O)[nH]4)cc3)C(C)C2)o1` (stereo not drawn) [IQ-040], the IC50 in assay [1] is < 5000 nM; in assay [2], < 100 nM.
In the case of `Cc1nnc(N(C)Cc2ccc(-c3cc4c(C#N)cccc4c(=O)[nH]3)cc2)o1` [IQ-042], the results for the IC50 in assay [1] and in assay [2] were < 5000 nM and < 50 nM, respectively.
Take `Cc1nnc(NCc2ccc(-c3cc4c(C#N)cccc4c(=O)[nH]3)cc2)o1` [IQ-045, 3-{4-[5-Methyl-[1,3,4-oxadiazol-2-ylamino)methyl]phenyl}-1-oxo-1,2-dihydroisoquinoline-5-carbonitrile]: the IC50 is < 5000 nM in assay [1], < 50 nM in assay [2] and < 300 nM in assay [3].
For `Cc1nnc(N(C)C2CN(Cc3ccc(-c4cc5c(C#N)cccc5c(=O)[nH]4)cc3)C2)o1` [IQ-047], the IC50 was < 5000 nM in assay [1] and < 50 nM in assay [2].
The matching figures for `Cc1nnc(N2CCCN(Cc3ccc(-c4cc5c(C#N)cccc5c(=O)[nH]4)cc3)CC2)o1` [IQ-049]: < 5000 nM and < 50 nM.
For `N#Cc1cccc2c(=O)[nH]c(-c3ccc(CN4CCNCC4)cc3)cc12` [IQ-050, 1-Oxo-3-(4-piperazin-1-ylmethyl-phenyl)-1,2-dihydro-isoquinoline-5-carbonitrile], the IC50 in assay [3] was < 300 nM.
As for `N#Cc1cccc2c(=O)[nH]c(-c3ccc(N4CCNCC4)nc3)cc12` [IQ-052], the IC50 was < 5000 nM in assay [1], < 100 nM in assay [2] and < 300 nM in assay [3].
`Cc1nnc(N2CCN(Cc3ccc(-c4cc5c(C#N)cccc5c(=O)[nH]4)cc3)CC2C)o1` (stereo not drawn) [IQ-056]: the IC50 was < 5000 nM in assay [1] and < 50 nM in assay [2].
In the case of `Cc1nnc(N2CCN(Cc3ccc(-c4cc5c(C#N)cccc5c(=O)[nH]4)cc3)C(C)(C)C2)o1` [IQ-057], the IC50 in assay [1] was < 5000 nM; in assay [2], < 50 nM.
For `Cc1nnc(N2CCCN(c3ccc(-c4cc5c(C#N)cccc5c(=O)[nH]4)cc3)CC2)o1` [IQ-059, 3-{4-[4-(5-Methyl-[1,3,4]oxadiazol-2-yl)-[1,4]diazepan-1-yl]-phenyl}-1-oxo-1,2-dihydro-isoquinoline-5-carbonitrile], the IC50 is < 5000 nM in assay [1] and < 50 nM in assay [2].
